US20180279615A1 (priority 2015, published 2018)

Test system: Botrytis cinerea
Assay: Activity against the grey mold Botrytis cinerea in the microtiterplate test
Type: cell-based
Conditions: comparative examples, measured at 405 nm 7 days after inoculation

Compound | Growth (%) at 32 ppm [%]
Cc1cc(C2=NC(C)(C)C(C)c3ccccc32)cnc1C (centres unmarked) [I-1, 1-(5,6-dimethyl-3-pyridyl)-3,3,4-trimethyl-4H-isoquinoline] | 0
Cc1cc(C2=NC(C)(C)Cc3ccccc32)cnc1C | 51
